Source: paper PMC12435366, “Maleic anhydride derived diphosphines: adaptable chelators for receptor-targeted ^99mTc, ^64Cu and ^188Re radiotracers” (Chemical Science, 2025)

Legend:
[1] = tested on: PSMA-expressing DU145-PSMA+ prostate cancer cells; experiment: In vitro uptake of 99mTc tracers in DU145-PSMA+ cells; format: cell-based; details: for uptake in DU145-PSMA+ cells (% added radioactivity): 50 kBq purified tracer, 5 × 10^5 cells seeded per well, 37 °C, 1 h incubation, mean ± SD, biological triplicate; for blocking of cell uptake by PSMA inhibitor PMPA: co-incubation with PMPA
Protocol: (§1) To compare the relative uptake and specificity of the new radiotracers for PSMA, [^99mTcO2(DP^Ph-PSMAt)2]^+, [^99mTcO2(DP^An-PSMAt)2]^+ and [^99mTcO2(DP^MEP-PSMAt)2]^+ (50 kBq) were purified from unreacted ^99mTc precursors and excess DP-PSMAt peptide, and each incubated with PSMA-expressing DU145-PSMA+ prostate cancer cells[33] or LNCaP prostate cancer cells (5 × 10^5 cells). After 1 h incubation, uptake of each radiotracer was quantified. […]
(§2) 4.9 99mTc uptake in DU145, DU145-PSMA+ and LNCaP cells
(§3) The following experiment was performed in biological triplicate.
(§4) A panel of cell lines were selected that either expressed GCP(II)/PSMA (DU145-PSMA+ (genetically modified to express PSMA),12 and LNCaP (CRL‐1740)), or had low GCP(II)/PSMA expression (DU145 (HTB-81)). All cell lines were cultured in RPMI 1640 medium (R0883, Sigma) containing 10% foetal bovine serum, 2 mM L-glutamine, and 100 U mL−1 penicillin and 100 µg mL−1 streptomycin. Cells were maintained at 37 °C and 5% CO 2. Cells were seeded in 6-well plates at a density of 5 × 10^5 cells per well […]
in 2 mL complete media to achieve 70–80% confluency the following day. Prior to treating cells, cell medium (1 mL/well) was replaced. Solutions containing either [99mTcO2(DPPh-PSMAt)2]+, [99mTcO2(DPAn-PSMAt)2]+ or [99mTcO2(DPMEP-PSMAt)2]+ (50 kBq in 10 μL of PBS, >95% radiochemical purity) were added to each well, and the cells incubated at 37 °C for 1 h. Uptake studies were also performed after a 2 min incubation with the PSMA inhibitor 2 -(phosphonomethyl)pentane -1,5-dioic acid (PMPA; 30 µL of 750 µM PMPA solution/well). After 60 min incubation, the supernatant was removed, and the cells were washed with PBS solution (2 × 1 mL). The cells were lysed with ice cold radioimmunoprecipitation assay buffer (RIPA buffer, 500 μL; 150 mM sodium chloride, 0.1% w/w sodium dodecyl sulfate (SDS), 0.5% w/w sodium deoxycholate (NaDOC), 1% w/w Triton-X) and samples were collected for radioactivity counting. Results are depicted as means ± SD of independent biological experiments (performed on different days with different radiotracer preparations). […]
Biodistribution studies using 99mTc radiotracers were performed once a tumour had reached 150– 300 mm3 in volume (2–7 weeks after injection).
SCID/beige mice bearing DU145-PSMA+ prostate cancer tumour xenografts
SPECT/CT scanning and biodistribution studies: The 99mTc radiotracers (3.9–4.5 MBq, 3 mice per group, containing DPAn-PSMAt = 3.0 µg or DPMEP-PSMAt = 3.5 µg) were administered via tail vein injection under isoflurane anaesthesia. Following this, SPECT/CT scanning was carried out in one of two methods outlined below, to maintain 2 h biodistribution timepoints : i. The mouse was positioned on a single heated bed in a nanoScan SPECT/CT 80W scanner (Mediso Ltd., Budapest, Hungary) calibrated for 99mTc. A helical CT scan was acquired (50 kV X-ray source, 170 ms exposure time in 360 projections over 3 min). At 15 min post -injection, whole body SPECT scans were acquired (1 × 15 min, 3 × 30 min, conducted sequentially) with a frame time of 13 s and 26 s (using a 4-head scanner with 4 × 9 [1.4 mm] pinhole collimators

[2] = tested on: parental DU145 cells that do not express PSMA; experiment: In vitro uptake of 99mTc tracers in parental DU145 cells; format: cell-based; details: PSMA-negative DU145 cells, 1 h
Protocol: as §1, §2, §3, §4
in 2 mL complete media to achieve 70–80% confluency the following day. […] The cells were lysed with ice cold radioimmunoprecipitation assay buffer (RIPA buffer, 500 μL; 150 mM sodium chloride, 0.1% w/w sodium dodecyl sulfate (SDS), 0.5% w/w sodium deoxycholate (NaDOC), 1% w/w Triton-X) and samples were collected for radioactivity counting. […]

SMILES: COCCOc1ccc(P(/C(C(=O)O)=C(/C(=O)NCCOCCOCCOCCOCCC(=O)NCCCC[C@H](NC(=O)N[C@@H](CCC(=O)O)C(=O)O)C(=O)O)P(c2ccc(OCCOC)cc2)c2ccc(OCCOC)cc2)c2ccc(OCCOC)cc2)cc1 [[^99mTcO2(DP^MEP-PSMAt)2]^+, metal not drawn]
- uptake in DU145-PSMA+ cells (% added radioactivity) [1]: 2.7 ± 0.8 %AR
- mean difference in uptake compared with [^99mTcO2(DP^Ph-PSMAt)2]^+ ([1]; DU145-PSMA+ cells, 1 h): 12.7 %AR
- blocking of cell uptake by PSMA inhibitor PMPA ([1]; DU145-PSMA+ cells, 1 h): blocked
- uptake in parental DU145 cells [2]: negligible uptake

SMILES: COc1ccc(P(/C(C(=O)O)=C(/C(=O)NCCOCCOCCOCCOCCC(=O)NCCCC[C@H](NC(=O)N[C@@H](CCC(=O)O)C(=O)O)C(=O)O)P(c2ccc(OC)cc2)c2ccc(OC)cc2)c2ccc(OC)cc2)cc1 [[^99mTcO2(DP^An-PSMAt)2]^+, metal not drawn]
- uptake in DU145-PSMA+ cells (% added radioactivity) [1]: 8.9 ± 2.1 %AR
- mean difference in uptake compared with [^99mTcO2(DP^MEP-PSMAt)2]^+ ([1]; DU145-PSMA+ cells, 1 h): 6.2 %AR
- mean difference in uptake compared with [^99mTcO2(DP^Ph-PSMAt)2]^+ ([1]; DU145-PSMA+ cells, 1 h): 6.5 %AR
- blocking of cell uptake by PSMA inhibitor PMPA ([1]; DU145-PSMA+ cells, 1 h): blocked
- uptake in parental DU145 cells [2]: negligible uptake
